Test results taken from US10822586B2, “Agents and methods for treating and preventing seborrheic keratosis” (THE GENERAL HOSPITAL CORPORATION, priority 2012, dated 2020).
“Also recorded” adds a separate entry of the source. Read-outs that look alike come from different tables or passages of the source.

Columns and labels:
primary SK cells = assay: Screening for inducers of cell death in primary SK cells (SRB assay); format: cell-based, human; settings: for SK cell death inducer activity / viability of SK cells in the screen: 500 nM; for SK cell death inducer activity / viability of SK cells in the screen / cell death in SK cells (follow-up): 24 hrs post treatment, SRB assay
Procedure: (§1) FIG. 2A, FIG. 2B, and FIG. 2C show data relating to the screening for small molecule inducers of cell death in primary SK cells. (FIG. 2A) 20 small molecule inhibitors (500 nM) of kinases within the MAPK-Raf and PIK3/Akt pathway were used to treat primary SK cells (in 12 well plates) harboring either FGFR3 or/and PIK3CA mutations or none. Cell death was detected 24 hrs post treatment using SRB assay. (FIG. 2B) Representative images of cells after compound treatment. (FIG. 2C) Same molecules were used on normal human keratinocytes in two different concentrations.
(§2) (FIG. 4A) SK cells were treated with two different Akt inhibitors and cell death was measured 24 hrs post treatment using SRB assay. (FIG. 4B) Akt inhibitors were profiled against the human kinome and shared targets were identified. (FIG. 4C) Cell death in SK cells after PKC inhibition. (FIG. 4D) cell death was measured in SK cells 72 hrs after transfection with control RNAi or RNAi for Akt1 and/or 2.
(§3) Due to the fragility of the primary cultures, RNAi transfection in a high throughput fashion turned out to be challenging, which prompted the use of a collection of specific small molecule kinase inhibitors to determine which kinase is essential for survival of SK cells but not of normal human keratinocytes. This level of selectivity was introduced in order to specifically target dependency caused by genomic alterations (both mutations and overexpression).
As recently reported this hyperphosphorylation is due to the docking of the compound in the ATP binding site, which prevents the Akt interaction with its downstream targets^27. As shown in FIG. 5B SK cells treated with C8 indeed have a hyperphosphorylated Akt, but importantly the Akt downstream signaling was shut down (FIG. 5C).
(§4) Small molecule kinase inhibitors usually have a high degree of specificity towards kinases in general but often these inhibitory effects are shared among several kinases, although in different doses. While this is in most of the cases considered a weakness of the approach, it can also give some evidence about other possible targets involved in the process of interest. Therefore, the inventors profiled the two effective compounds for their targets (in collaboration with Dr. N. Gray, DFCI) and determined if any other kinases might be involved in the survival of SK cells. […] In addition, the inventors were able to confirm this by down-modulation of Akt family members using an RNAi approach.

[1] = test system: normal human keratinocytes; assay: Cell death in normal human keratinocytes (SRB assay); format: cell-based; settings: C8 dose-response, 24 hrs, SRB stained
Procedure: as §1
FIG. 3A, FIG. 3B, and FIG. 3C show data relating to small molecule-mediated inhibition of Akt signaling in primary SK cells. (FIG. 3A) SK and normal keratinocytes were treated with C8 for 24 hrs and SRB stained. (FIG. 3B) and (FIG. 3C). SK cells were treated with C8 for 4 hrs and subjected to Western blotting for corresponding proteins.
as §3, with “overexpression). […]” for “overexpression).”

Akt = assay: Western blotting of Akt signaling in SK cells; format: cell-based, human
Procedure: (FIG. 3A) SK and normal keratinocytes were treated with C8 for 24 hrs and SRB stained. (FIG. 3B) and (FIG. 3C). SK cells were treated with C8 for 4 hrs and subjected to Western blotting for corresponding proteins.

human kinome = assay: Profiling of Akt inhibitors against the human kinome; format: biochemical
Procedure: as §2, §4

Human SK explants = assay: Topical treatment of ex vivo human SK explants; format: cell-based
Procedure: It is now widely accepted that growth, differentiation and death of keratinocytes in culture differs in significant aspects from that in intact skin. Therefore, in order to closely reproduce the in vivo situation for SK tumors, the inventors utilized an ex vivo explant system^16 for culturing freshly excised SK lesions for up to 7 days. SK explants were treated by topical application of 1 mM of C8 for 48 hrs and stained for activated Caspase 3 to detect cell death.

SK cells = assay: Apoptosis in SK cells (cleaved PARP Western blotting, TUNEL staining); format: cell-based, human
Procedure: (§5) (FIG. 6A) SK cells were treated with the Akt inhibitor either for 24 hrs to measure levels of cleaved PARP by Western blotting or (FIG. 6B) for 48 hrs to detect TUNEL staining. (FIG. 6C) 24 hrs post treatment pro-apoptotic Akt targets were analyzed by WB.
It is well-established that activation of Akt in cells is known to elicit pro-survival effects through activation/suppression of different targeted pathways.

[2] = test system: pro-apoptotic Akt targets (FoxO1/3, MDM2, p53); assay: Western blot of pro-apoptotic Akt targets in SK cells; format: cell-based, human; settings: 24 hrs post treatment, WB
Procedure: as §5
Therefore, it was investigated if any of the prominent pro-apoptotic targets of Akt were involved in this process. A decrease of phosphorylated levels of FoxO1/3 as well as of phosphorylated MDM2 was observed, which correlated with increased p53 levels upon treatment with the Akt inhibitor […].

[3] = SK cells treated 4 hrs, Western blotting

Cc1n[nH]c2ccc(-c3cncc(OC[C@@H](N)Cc4c[nH]c5ccccc45)c3)cc12 [C8]
SK cell death inducer activity / viability of SK cells in the screen (primary SK cells): very strong activity
cell death in SK cells (follow-up) (primary SK cells): dose-response killing effect
effect on normal keratinocytes [1]: remained unaffected even at higher doses
Akt downstream signaling (Akt; [3]): shut down
phosphorylation status of Akt at T308 and 5473 (Akt; [3]): paradoxical hyperphosphorylation
shared targets in kinase profiling (human kinome): only members of the Akt and PKC family were shared targets
cell death in SK explants (activated Caspase 3) (Human SK explants; topical application of 1 mM for 48 hrs): significant cell death; also recorded: induction of cell death
tissue destruction in SK explants (H&E staining) (Human SK explants; topically treated with 1 mM for 48 hrs): tissue destruction
apoptosis as detected by cleaved PARP levels and TUNEL staining (SK cells; 24 hrs (cleaved PARP), 48 hrs (TUNEL)): induction of apoptosis
TUNEL staining (SK cells; SK cells, 48 hrs): positive
p53 levels [2]: increased
phosphorylated MDM2 [2]: decrease
phosphorylated levels of FoxO1/3 [2]: decrease

Clc1ccc(C2(c3ccc(-c4cn[nH]c4)cc3)CCNCC2)cc1 [C9]
SK cell death inducer activity / viability of SK cells in the screen (primary SK cells): did not affect the viability
cell death in SK cells (follow-up) (primary SK cells): did not show any effects

CCn1c(-c2nonc2N)nc2c(C#CC(C)(C)O)ncc(OC[C@H]3CCCNC3)c21 [GSK690693]
shared targets in kinase profiling (human kinome): only members of the Akt and PKC family were shared targets

COc1ccc(C2=N[C@@H](c3ccc(Cl)cc3)[C@@H](c3ccc(Cl)cc3)N2C(=O)N2CCNC(=O)C2)c(OC(C)C)c1 [Nutlin-3]
cell death in SK cells (primary SK cells): induces cells death

Cc1c2ccncc2c(C)c2c1[nH]c1ccccc12 [elipticine, ellipticine]
cell death in SK cells (primary SK cells; within 48 hours): induce cell death
Akt signaling in SK cells (Akt): block Akt signaling

O=c1c(O)c(-c2ccc(O)cc2)oc2cc(O)cc(O)c12 [kaempferol]
cell death in SK cells (primary SK cells; within 48 hours): induce cell death
Akt signaling in SK cells (Akt): block Akt signaling

COc1ccc(C[C@H](N)C(=O)N[C@H]2[C@@H](O)[C@H](n3cnc4c(N(C)C)ncnc43)O[C@@H]2CO)cc1 [pyromycin, puromycin]
cell death in SK cells (primary SK cells): inducer of cell death
